# In patent US20130338264A1, “CONDENSATION PRODUCTS OF MELAMINE AND PHENYLPHOSPHONIC ACID AND THEIR USE AS FLAME RETARDANTS” (BASF SE, priority 2011, published 2013):
# Assays:
# [1] = Decomposition by TGA (thermogravimetric analysis); type: physicochemical; details: for TGA onset [° C.]: overview table
# Protocol: Melamine hydrogenphenylphosphonate (MPPO) from example 1 (10.000 g, 0.04 mol) is tempered in a glass tube at 300° C./5·10^−1 mbar for 2 h and additional for 22 h. The mass balance is monitored for the residual by gravimetrically methods. The obtained product is characterized by phosphorous content, 1,3,5-triazine components and thermogravimetry.
# Based on the results of the thermo gravimetric analysis (TGA) of the compounds in examples A1-A5 one can conclude that the condensation of melamine hydrogene phenyphosphonate occurs in a two step mode. […] The mode of condensation therefore may be controlled in a balanced thermometric and stoichiometric approach. According to example A2-A4 in a temperature range of 280-300° C. melam formation is favoured. However, other temperature profiles could be more suitable for other stoichiometric ratios. The increasing phosphorous content in the compounds of example A2-A3 in comparison to example A5 points to the condensation of phenylphosphonic anions.
# Solubility in water = type: physicochemical
# Protocol: Solubility in water: 11 g/L (25° C.); 70 g/L (95° C.)
substance,measurement,setting,value
Melam Phenylhydrogenphosphonate [Example A5],Decomposition by TGA: onset,[1],345 °C
same,TGA Mass loss at T ° C. [%],[1]; T = 372 ° C.,372 [−15%]
same,Decomposition by TGA: mass loss at onset,"[1]; at onset 345° C., 1 molÄq H2O",−4.5%
same,Decomposition by TGA: mass loss at onset,[1]; at onset 372° C.,−55%
same,TGA onset [° C.],[1],345 °C
same,Decomposition by TGA: onset (second step),[1]; second onset printed,372 °C
Melamine Phenylhydrogenphosphonate (MPPO) [Example A1],Solubility in water,Solubility in water; 25° C.,11 mg/mL
same,Solubility in water,Solubility in water; 95° C.,70 mg/mL
same,Decomposition by TGA: onset,[1],277 °C
same,TGA Mass loss at T ° C. [%],[1]; T = 320 ° C.,320 [−10%]
same,Decomposition by TGA: mass loss at onset,[1]; at onset 277° C.,−12%
same,TGA onset [° C.],[1],277 °C
